Data from patent US20250381254A1, “Augmented Acid Alpha-Glucosidase For The Treatment Of Pompe Disease” (Amicus Therapeutics, Inc., priority 2015, published 2025).
Read-outs that look alike come from different tables or passages of the source.

What was measured:
[1] = Population PK model of duvoglustat in plasma and tissue; format: in vivo, human; settings: typical value
Experimental: Concentration-time profiles of miglustat (200 mg) in Pompe disease patients are compared to those obtained following administration of duvoglustat in normal healthy volunteers (dose range: 50, 100, 250, 600, and 1000 mg). Because concentration-time profiles of miglustat in patients with Pompe disease are similar to those observed following dosing of duvoglustat in healthy subjects over 24 h, PK data collected for duvoglustat in peripheral tissues were used as a surrogate to model exposure to miglustat. A two-compartment model with linear elimination is used to characterize the concentration-time profiles of duvoglustat in tissues.

Gaa KO mice [2] = experiment: Glycogen reduction by ATB200 batches vs Lumizyme; format: in vivo, mouse; settings: 2 IV bolus injections every other week, FIGS. 37A-37D
Experimental: In a related study, IV bolus tail vein injections of ATB200 (Batches A and B) and Lumizyme® were given to Gaa KO mice every other week for a total of 2 injections. Glycogen levels in tissues were measured 14 days after last administration.

[3] = Specific activity of ATB200 batches; format: biochemical
Experimental: Two batches of ATB200 with different sialic acid content were evaluated for pharmacokinetics and efficacy in Gaa KO mice.

[4] = Plasma GAA activity half-life of ATB200 batches after single IV bolus; format: in vivo, mouse; settings: GAA activity in plasma, Gaa KO mice
CIMPR = CIMPR (Homo sapiens, UniProt P11717); experiment: CIMPR affinity chromatography of rhGAA; format: binding; settings: fraction of total enzyme by GAA activity
Chain of CIMPR (P11717 41-2491, species assumed): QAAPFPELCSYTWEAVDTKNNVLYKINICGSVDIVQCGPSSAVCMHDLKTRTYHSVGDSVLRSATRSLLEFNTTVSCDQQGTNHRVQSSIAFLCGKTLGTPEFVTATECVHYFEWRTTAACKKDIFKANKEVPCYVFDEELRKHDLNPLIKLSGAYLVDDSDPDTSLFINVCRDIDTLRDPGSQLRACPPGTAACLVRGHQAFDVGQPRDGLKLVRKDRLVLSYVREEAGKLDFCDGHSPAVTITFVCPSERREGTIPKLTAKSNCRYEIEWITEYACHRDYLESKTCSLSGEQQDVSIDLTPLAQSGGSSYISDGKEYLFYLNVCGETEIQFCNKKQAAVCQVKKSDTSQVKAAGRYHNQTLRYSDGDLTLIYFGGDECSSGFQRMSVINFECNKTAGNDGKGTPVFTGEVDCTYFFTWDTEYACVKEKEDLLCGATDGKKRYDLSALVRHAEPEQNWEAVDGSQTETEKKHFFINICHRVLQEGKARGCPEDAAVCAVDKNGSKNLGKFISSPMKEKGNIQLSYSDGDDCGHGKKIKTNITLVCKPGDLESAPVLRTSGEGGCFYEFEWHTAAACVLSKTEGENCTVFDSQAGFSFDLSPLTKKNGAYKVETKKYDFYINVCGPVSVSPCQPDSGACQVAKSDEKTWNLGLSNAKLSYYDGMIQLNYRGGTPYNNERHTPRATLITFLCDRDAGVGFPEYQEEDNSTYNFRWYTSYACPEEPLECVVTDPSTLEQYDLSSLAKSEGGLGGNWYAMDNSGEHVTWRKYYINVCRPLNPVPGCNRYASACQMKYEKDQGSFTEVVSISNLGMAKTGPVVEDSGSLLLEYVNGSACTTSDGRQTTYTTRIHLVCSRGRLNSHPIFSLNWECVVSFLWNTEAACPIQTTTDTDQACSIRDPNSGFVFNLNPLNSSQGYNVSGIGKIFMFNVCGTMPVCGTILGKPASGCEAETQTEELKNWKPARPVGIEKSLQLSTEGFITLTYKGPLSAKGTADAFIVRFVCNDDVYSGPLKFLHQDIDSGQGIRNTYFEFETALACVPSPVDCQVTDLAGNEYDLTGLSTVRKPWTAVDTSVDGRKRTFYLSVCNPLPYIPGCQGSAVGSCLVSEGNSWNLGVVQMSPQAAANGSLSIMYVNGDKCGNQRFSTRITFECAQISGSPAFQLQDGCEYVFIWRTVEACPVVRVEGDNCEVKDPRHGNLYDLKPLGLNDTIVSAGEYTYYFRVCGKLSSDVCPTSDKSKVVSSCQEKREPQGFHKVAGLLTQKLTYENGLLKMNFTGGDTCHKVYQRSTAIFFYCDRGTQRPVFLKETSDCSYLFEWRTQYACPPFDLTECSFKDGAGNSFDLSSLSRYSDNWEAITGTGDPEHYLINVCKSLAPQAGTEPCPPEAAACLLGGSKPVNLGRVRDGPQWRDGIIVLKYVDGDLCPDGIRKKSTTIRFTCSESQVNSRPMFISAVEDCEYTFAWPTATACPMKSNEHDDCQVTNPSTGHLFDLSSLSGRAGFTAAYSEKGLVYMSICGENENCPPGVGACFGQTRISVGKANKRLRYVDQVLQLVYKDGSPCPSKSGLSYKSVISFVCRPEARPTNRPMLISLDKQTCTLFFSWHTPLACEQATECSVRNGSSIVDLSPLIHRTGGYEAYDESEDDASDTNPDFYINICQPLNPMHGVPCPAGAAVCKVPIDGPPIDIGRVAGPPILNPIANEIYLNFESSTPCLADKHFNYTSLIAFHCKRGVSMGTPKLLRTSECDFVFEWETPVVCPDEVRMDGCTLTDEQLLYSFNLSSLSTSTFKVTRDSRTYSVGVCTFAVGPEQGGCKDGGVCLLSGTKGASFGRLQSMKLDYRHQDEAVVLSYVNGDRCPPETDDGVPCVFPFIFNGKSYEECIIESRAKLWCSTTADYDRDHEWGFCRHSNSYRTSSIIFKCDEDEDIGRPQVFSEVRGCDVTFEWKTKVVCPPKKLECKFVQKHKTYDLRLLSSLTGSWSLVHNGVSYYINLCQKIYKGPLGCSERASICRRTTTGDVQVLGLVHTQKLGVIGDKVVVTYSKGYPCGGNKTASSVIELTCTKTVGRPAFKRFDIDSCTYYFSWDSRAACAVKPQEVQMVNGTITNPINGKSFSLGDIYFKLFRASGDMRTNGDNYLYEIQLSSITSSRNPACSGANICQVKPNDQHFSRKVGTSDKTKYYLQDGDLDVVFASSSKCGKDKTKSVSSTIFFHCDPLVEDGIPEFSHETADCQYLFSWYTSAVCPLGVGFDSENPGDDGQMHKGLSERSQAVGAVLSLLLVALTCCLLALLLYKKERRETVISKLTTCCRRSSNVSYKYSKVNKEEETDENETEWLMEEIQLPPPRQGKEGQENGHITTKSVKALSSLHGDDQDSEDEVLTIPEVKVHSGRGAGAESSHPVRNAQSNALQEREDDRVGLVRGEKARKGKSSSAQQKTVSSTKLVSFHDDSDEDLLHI
Experimental: To evaluate the ability of the rhGAA in Myozyme® and Lumizyme®, the only currently approved treatments for Pompe disease, these rhGAA preparations were injected onto a CIMPR column (which binds rhGAA having M6P groups) and subsequently eluted with a free […] gradient. Fractions were collected in 96-well plate and GAA activity assayed by 4MU—α-glucose substrate. The relative amounts of bound and unbound rhGAA were determined based on GAA activity and reported as the fraction of total enzyme.

[5] = 20 to 40 mg/kg alglucosidase alfa with 4 doses of 80 mg miglustat; 13 Pompe subjects; mean; cited from earlier work
[6] = Apparent plasma half-life in vivo
Gaa KO mice [7] = experiment: Cellular dysfunction in Gaa KO mice after 2 administrations; format: in vivo, mouse; settings: 20 mg/kg ERT every other week, miglustat 10 mg/kg
Experimental: These key muscle proteins require proper protein trafficking to the muscle cell membrane where they function. […] Alglucosidase alfa (Myozyme®) and ATB200 with and without 10 mg/kg miglustat were evaluated in Gaa KO mice at equivalent ERT dose (20 mg/kg) via an every other week dosing schedule. […] In FIGS. 32A-32D, * indicates statistically significant compared to Myozyme® alone.

OC[C@H]1NC[C@H](O)[C@@H](O)[C@@H]1O [duvoglustat, (2R,3R,4R,5S)-2-(hydroxymethyl)piperidine-3,4,5-triol]
clearance ([1]; human, plasma and tissue, read-out: Central compartment clearance (CL2) (converted)): 3.42 mL/min
clearance ([1]; human, plasma and tissue, read-out: Systemic clearance (CL) (converted)): 157 mL/min
Vd ([1]; human, plasma and tissue, read-out: Volume of distribution (V)): 44.5 L
Apparent intercompartment clearance (CLQ) [1]: 40.6 L/h
Elimination rate constant (Keo) [1]: 0.378
Intercompartment volume of distribution (VQ) [1]: 61.8 L
Intercompartment volume of distribution within central compartment (VQ2) [1]: 3390 L
Lag time [1]: 0.176 h
Peripheral compartment clearance (CL3) [1]: 88.0 L/h
Peripheral volume of distribution (V2) [1]: 8.68 L
Rate constant of absorption (Ka) [1]: 1.10 h⁻¹

Batch A: batch of ATB200 with sialic acid 4.0 mol/mol protein and M6P content 3.3 mol/mol protein
glycogen reduction vs Lumizyme® (Gaa KO mice [2]): superior to Lumizyme® in reducing glycogen
Specific activity [3]: 115831 (nmol nmol 4 mu/mg protein/hr
Half-life, Mean ± SEM [4]: 30 ± 1.2 min

Batch B: batch of ATB200 with sialic acid 5.4 mol/mol protein and M6P content 2.9 mol/mol protein
glycogen reduction vs Lumizyme® (Gaa KO mice [2]): superior to Lumizyme® in reducing glycogen
glycogen reduction, Batch B vs Batch A (Gaa KO mice [2]; similar doses): generally more effective in reducing glycogen than Batch A
Specific activity [3]: 120929 (nmol nmol 4 mu/mg protein/hr
Half-life, Mean ± SEM [4]: 36 ± 1.8 min

Myozyme®: conventional rhGAA product (alglucosidase alfa), Genzyme
rhGAA activity eluted prior to addition of M6P (did not bind to the CIMPR) (CIMPR): 73%
rhGAA eluted with M6P / containing M6P (CIMPR binding) (CIMPR): 27%

[199-arginine,223-histidine]prepro-α-glucosidase (human) [alglucosidase alfa]
increase in acid α-glucosidase activity exposure (AUC), co-administration vs alglucosidase alfa alone [5]: 6.8 fold
apparent plasma half-life t1/2 [6]: ~60 min
autophagy (LC3 II) and lysosomal proliferation (LAMP1) (Gaa KO mice [7]; FIGS. 29-30): negligible effects towards reducing autophagy
lysosomal glycogen in skeletal muscles (Gaa KO mice [7]; FIGS. 32A-32D): modestly reduced accumulated lysosomal glycogen in skeletal muscles
